Like-named read-outs stand apart in the source and are kept apart here.
Assays:
[1] = system: OT-1 CD8+ T cells with SIINFEKL-loaded MC38 tumor cells; assay: Murine cytotoxic T lymphocyte assay (IFN-γ, OT-1 CTL with MC38 tumor cells); assay type: cell-based, mouse; conditions: read-out: msCTL INFg IC50
Excerpt: 5. Murine Cytotoxic T Lymphocyte Assay
An antigen-specific cytolytic T-cell (CTL) assay was developed to evaluate functionally the ability of DGKα and DGKζ inhibitors to enhance effector T cell mediated tumor cell killing activity. CD8+ T-cells isolated from the OT-1 transgenic mouse recognize antigen presenting cells, MC38, that present the ovalbumin derived peptide […]. Recognition of the cognate antigen initiates the cytolytic activity of the OT-1 antigen-specific CD8+ T cells.
Functional CTL cells were generated as follows: OT-1 splenocytes from 8-12 week old mice were isolated and expanded in the presence of the […] peptide at 1 μg/mL and mIL2 at 10 U/mL. After three days, fresh media with […] was added. On day 5 of the expansion, the CD8+ T cells were isolated and ready for use. Activated CTL cells may be stored frozen for 6 months. Separately, one million MC38 tumor cells were pulsed with 1 μg/mL of […]-OVA peptide for 3 hours at 37° C. The cells were washed (3×) with fresh media to remove excess peptide. Finally, CTL cells that were pretreated with DGK inhibitors for 1 hour in a 96-well U bottom plate were combined with the antigen loaded MC38 tumor cells at a 1:10 ratio. The cells were then spun at 700 rpm for 5 min and placed in an incubator overnight at 37° C. After 24 hours, the supernatant was collected for analysis of IFN-γ cytokine levels by AlphaLisa purchased from Perkin Elmer.

naïve human CD8 T cells = assay: Human CD8 T cells IFN-γ assay; assay type: cell-based; conditions: normalized to 3 μM reference compound with anti-CD3 plus anti-CD28 as 100% activation, read-out: HuCD8 INFG Normalized EC50;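 also: Naïve human CD8 T cells stimulated with plate-bound anti-CD3 and soluble anti-CD28, IFN-γ in supernatant quantified by AlphaLISA and converted to pg/mL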
Human venous whole blood = assay: Human whole blood IFN-γ assay; assay type: cell-based;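 also: blood from healthy donors exposed to compound for 1 h before stimulation with anti-CD3 and anti-CD28 at 1 µg/mL each, IFN-γ quantified in supernatant by AlphaLISA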
human DGKα = molecular target: T1, human DGKα (Homo sapiens, UniProt P23743); assay: DGKα LIPGLO assay (extruded liposome substrate), in vitro DGK inhibition; assay type: biochemical; conditions: liposome (LIPGLO) assay; read-out: DGKa LIPGLO IC50
T1 construct: TVMV protease cleavage site (C); Hexa-His (C); made in house; host or cells: Sf9 insect cells (baculovirus, Bac-to-Bac)
T1 sequence (P23743 with tags, fused parts or gaps): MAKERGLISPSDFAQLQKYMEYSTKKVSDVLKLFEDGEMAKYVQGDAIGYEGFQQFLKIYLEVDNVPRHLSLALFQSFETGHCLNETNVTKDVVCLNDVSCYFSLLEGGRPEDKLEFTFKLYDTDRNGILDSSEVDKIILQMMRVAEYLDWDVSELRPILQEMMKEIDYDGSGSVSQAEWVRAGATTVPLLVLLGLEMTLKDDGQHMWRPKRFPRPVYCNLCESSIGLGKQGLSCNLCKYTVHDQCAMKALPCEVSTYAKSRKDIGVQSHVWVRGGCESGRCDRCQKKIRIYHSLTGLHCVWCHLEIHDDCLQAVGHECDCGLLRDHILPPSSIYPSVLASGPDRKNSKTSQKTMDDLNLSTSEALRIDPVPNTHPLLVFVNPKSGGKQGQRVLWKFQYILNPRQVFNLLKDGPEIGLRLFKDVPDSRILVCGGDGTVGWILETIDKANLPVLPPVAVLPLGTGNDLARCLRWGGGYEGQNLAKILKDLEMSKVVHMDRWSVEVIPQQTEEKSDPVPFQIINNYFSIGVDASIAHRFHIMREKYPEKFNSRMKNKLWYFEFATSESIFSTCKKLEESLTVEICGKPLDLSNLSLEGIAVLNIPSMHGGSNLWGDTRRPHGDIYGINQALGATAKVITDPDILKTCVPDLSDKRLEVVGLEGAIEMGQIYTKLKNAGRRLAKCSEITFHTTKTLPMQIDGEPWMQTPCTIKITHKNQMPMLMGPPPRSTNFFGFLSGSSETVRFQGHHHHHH

human DGKζ = molecular target: T2, human DGKζ (Homo sapiens, UniProt Q13574); assay: DGKζ LIPGLO assay (extruded liposome substrate), in vitro DGK inhibition; assay type: biochemical; conditions: liposome (LIPGLO) assay; read-out: DGKz LIPGLO IC50
T2 construct: TVMV protease cleavage site (C); Hexa-His (C); made in house; host or cells: Sf9 insect cells (baculovirus, Bac-to-Bac)
T2 sequence (Q13574 with tags, fused parts or gaps isoform Q13574-4): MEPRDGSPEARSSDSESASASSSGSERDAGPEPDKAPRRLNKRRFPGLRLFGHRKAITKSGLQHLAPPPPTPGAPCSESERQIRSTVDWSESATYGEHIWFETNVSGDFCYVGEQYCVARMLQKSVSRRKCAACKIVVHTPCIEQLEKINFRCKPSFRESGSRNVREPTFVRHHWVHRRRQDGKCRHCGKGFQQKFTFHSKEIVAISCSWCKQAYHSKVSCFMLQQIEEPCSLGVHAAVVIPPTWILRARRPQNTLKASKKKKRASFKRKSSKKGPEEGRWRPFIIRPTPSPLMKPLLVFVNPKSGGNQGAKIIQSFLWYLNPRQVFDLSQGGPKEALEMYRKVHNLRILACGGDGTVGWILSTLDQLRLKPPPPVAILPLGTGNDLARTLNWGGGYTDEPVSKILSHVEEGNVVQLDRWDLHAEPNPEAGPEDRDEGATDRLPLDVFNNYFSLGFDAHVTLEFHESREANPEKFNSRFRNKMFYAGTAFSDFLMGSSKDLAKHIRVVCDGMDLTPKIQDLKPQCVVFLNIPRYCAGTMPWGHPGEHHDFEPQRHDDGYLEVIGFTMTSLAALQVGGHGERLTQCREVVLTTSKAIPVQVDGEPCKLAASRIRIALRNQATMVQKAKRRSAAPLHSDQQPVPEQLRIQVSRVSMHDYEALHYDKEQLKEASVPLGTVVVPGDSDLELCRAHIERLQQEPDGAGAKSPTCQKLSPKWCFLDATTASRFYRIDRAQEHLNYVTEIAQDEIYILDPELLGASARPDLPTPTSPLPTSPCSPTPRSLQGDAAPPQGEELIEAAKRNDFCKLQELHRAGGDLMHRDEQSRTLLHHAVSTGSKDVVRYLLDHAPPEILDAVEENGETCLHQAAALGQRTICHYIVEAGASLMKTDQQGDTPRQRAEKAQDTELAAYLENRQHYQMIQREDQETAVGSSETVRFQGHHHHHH

[2] = Homo sapiens, 24 h, human whole blood; normalized to 3 μM reference compound with anti-CD3 plus anti-CD28 as 100% activation; read-out: INFg Whole Blood Normalized Agonist EC50
[3] = human whole blood; normalized to 3 μM reference compound with anti-CD3 plus anti-CD28 as 100% activation; read-out: INFg Whole Blood Normalized Agonist EC50

Row | IC50 (human DGKα) [µM] | IC50 (human DGKζ) [µM] | SMILES | IC50 [1] [µM] | EC50 (naïve human CD8 T cells) [µM] | EC50 (Human venous whole blood; read-out: INFg Whole Blood Normalized Agonist EC50; human whole blood; normalized to 3 μM reference compound with anti-CD3 plus anti-CD28 as 100% activation) [µM] | IC50 ([1]; Mus musculus, MC-38) [µM] | EC50 (naïve human CD8 T cells; Homo sapiens, T-cell, 20 h) [µM] | EC50 (Human venous whole blood; [2]) [µM] | EC50 (Human venous whole blood; [3]) [µM]
1 | 240 | 110 | Cn1c(=O)cc(N2CCN(C(c3ccc(F)cc3)c3ccc(F)cc3)CC2C(=O)NC2CC2)c2nc(C#N)ccc21 (single isomer, unassigned) [Example 139, 4-(bis(4-fluorophenyl)methyl)-1-(6-cyano-1-methyl-2-oxo-1,2-dihydro-1,5-naphthyridin-4-yl)-N-cyclopropylpiperazine-2-carboxamide] | – | 50 | – | 10 | – | – | –
2 | 2.4 | 1.2 | COC(=O)[C@@H]1CN(c2cc(=O)n(C)c3ccc(C#N)nc23)CCN1C(c1ccc(F)cc1)c1ccc(F)cc1 [Example 66, Methyl (S)-1-(bis(4-fluorophenyl)methyl)-4-(6-cyano-1-methyl-2-oxo-1,2-dihydro-1,5-naphthyridin-4-yl)piperazine-2-carboxylate] | – | – | – | 0.066 | 0.16 | – | –
3 | 13 | 4.9 | C[C@H]1CN(C(c2ccc(F)cc2)c2ccc(F)cc2)CCN1c1cc(=O)n(C)c2ccc(C#N)nc12 [Example 134, (S)-8-(4-(bis(4-fluorophenyl)methyl)-2-methylpiperazin-1-yl)-5-methyl-6-oxo-5,6-dihydro-1,5-naphthyridine-2-carbonitrile] | – | – | – | 0.39 | 0.59 | – | –
4 | 0.67 | 0.32 | Cc1ccc(C(c2ccc(F)cc2)N2C[C@H](C)N(c3cc(=O)n(C)c4ccc(C#N)nc34)C[C@H]2C)cc1 (single isomer, unassigned) [Example 251] | – | – | – | 0.032 | – | 0.44 | –
5 | 25 | 39 | COC(=O)C1CN(C(c2ccc(F)cc2)c2ccc(F)cc2)CCN1c1cc(=O)n(C)c2ccc(C#N)nc12 (single isomer, unassigned) [Example 136, Methyl 4-(bis(4-fluorophenyl)methyl)-1-(6-cyano-1-methyl-2-oxo-1,2-dihydro-1,5-naphthyridin-4-yl)piperazine-2-carboxylate] | 0.52 | – | – | – | 0.95 | – | –
6 | 16 | 12 | CC1CN(c2cc(=O)n(C)c3ccc(C#N)nc23)CC(C)N1C(c1ccc(F)cc1)c1ccc(F)cc1 (stereo not shown) [Example 163, 8-(4-(bis(4-fluorophenyl)methyl)-3,5-dimethylpiperazin-1-yl)-5-methyl-6-oxo-5,6-dihydro-1,5-naphthyridine-2-carbonitrile] | – | – | – | 2.1 | 1.5 | – | –
7 | 0.52 | 0.31 | COC(=O)C1CN(c2c([N+](=O)[O-])c(=O)n(C)c3ccc(C#N)nc23)CCN1C(c1ccc(F)cc1)c1ccc(F)cc1 (single isomer, unassigned) [Example 73, Methyl 1-(bis(4-fluorophenyl)methyl)-4-(6-cyano-1-methyl-3-nitro-2-oxo-1,2-dihydro-1,5-naphthyridin-4-yl)piperazine-2-carboxylate] | – | – | – | 0.15 | – | 0.29 | –
8 | 240 | 77 | CC(C)C(C)(O)C1CN(c2cc(=O)n(C)c3ccc(C#N)nc23)CCN1C(c1ccc(F)cc1)c1ccc(F)cc1 (single isomer, unassigned) [Example 89, 8-(4-(bis(4-fluorophenyl)methyl)-3-(2-hydroxy-3-methylbutan-2-yl)piperazin-1-yl)-5-methyl-6-oxo-5,6-dihydro-1,5-naphthyridine-2-carbonitrile] | 2.6 | – | – | – | – | – | 20
9 | 12 | 0.82 | COc1cc(F)ccc1C(c1ccc(F)cc1)N1CCN(c2cc(=O)n(C)c3ccc(C#N)nc23)[C@@H](C)C1 (single isomer, unassigned) [Example 129] | – | – | – | 0.71 | – | 5.4 | –

Continued, compound first:

Row | SMILES | IC50 (human DGKα) [µM] | IC50 (human DGKζ) [µM] | IC50 [1] [µM] | EC50 (naïve human CD8 T cells) [µM] | EC50 (Human venous whole blood; read-out: INFg Whole Blood Normalized Agonist EC50; human whole blood; normalized to 3 μM reference compound with anti-CD3 plus anti-CD28 as 100% activation) [µM] | IC50 ([1]; Mus musculus, MC-38) [µM] | EC50 (naïve human CD8 T cells; Homo sapiens, T-cell, 20 h) [µM] | EC50 (Human venous whole blood; [2]) [µM] | EC50 (Human venous whole blood; [3]) [µM]
10 | C[C@@H]1CN(c2cc(=O)n(C)c3ccc(C#N)nc23)[C@@H](C)CN1C(c1ccc(F)cc1)c1ccccc1F (single isomer, unassigned) [Example 305] | – | – | 0.023 | 0.026 | 0.68 | – | – | – | –
11 | Cn1c(=O)c(C#N)c(N2CCN(C(c3ccc(F)cc3)c3ccc(F)cc3)C(CO)C2)c2nc(C#N)ccc21 (single isomer, unassigned) [Example 15, 8-(4-(bis(4-fluorophenyl)methyl)-3-(hydroxymethyl)piperazin-1-yl)-5-methyl-6-oxo-5,6-dihydro-1,5-naphthyridine-2,7-dicarbonitrile] | 5.1 | 6.6 | – | 10 | – | 0.91 | – | – | –
12 | Cn1c(=O)c(C#N)c(N2CCN(C(c3ccc(F)cc3)c3ccc(F)cc3)C(CO)C2)c2nc(C#N)ccc21 (single isomer, unassigned) [Example 16, 8-(4-(bis(4-fluorophenyl)methyl)-3-(hydroxymethyl)piperazin-1-yl)-5-methyl-6-oxo-5,6-dihydro-1,5-naphthyridine-2,7-dicarbonitrile] | 7.5 | 12 | 1.4 | 0.53 | – | – | – | – | –
13 | Cn1c(=O)c(C#N)c(N2CCN(C(c3ccc(F)cc3)c3ccc(F)cc3)C(C(=O)O)C2)c2nc(C#N)ccc21 (single isomer, unassigned) [Example 54, 1-(bis(4-fluorophenyl)methyl)-4-(3,6-dicyano-1-methyl-2-oxo-1,2-dihydro-1,5-naphthyridin-4-yl)piperazine-2-carboxylic acid] | 200 | 120 | – | 10 | – | 10 | – | – | –
14 | CC(C)OC(=O)C1CN(c2c(C#N)c(=O)n(C)c3ccc(C#N)nc23)CCN1C(c1ccc(F)cc1)c1ccc(F)cc1 (single isomer, unassigned) [Example 64, Isopropyl 1-(bis(4-fluorophenyl)methyl)-4-(3,6-dicyano-1-methyl-2-oxo-1,2-dihydro-1,5-naphthyridin-4-yl)piperazine-2-carboxylate] | 240 | 240 | – | 10 | – | 8.8 | – | – | –
15 | CC(C)OC(=O)C1CN(c2cc(=O)n(C)c3ccc(C#N)nc23)CCN1C(c1ccc(F)cc1)c1ccc(F)cc1 (single isomer, unassigned) [Example 63, Isopropyl 1-(bis(4-fluorophenyl)methyl)-4-(6-cyano-1-methyl-2-oxo-1,2-dihydro-1,5-naphthyridin-4-yl)piperazine-2-carboxylate] | 240 | 240 | 1.6 | 0.21 | – | – | – | – | –
16 | Cn1c(=O)c(C#N)c(N2CCN(C(c3ccc(F)cc3)c3ccc(F)cc3)C(C(=O)NC3CC3)C2)c2nc(C#N)ccc21 (single isomer, unassigned) [Example 60, 1-(bis(4-fluorophenyl)methyl)-N-cyclopropyl-4-(3,6-dicyano-1-methyl-2-oxo-1,2-dihydro-1,5-naphthyridin-4-yl)piperazine-2-carboxamide] | 240 | 72 | – | – | – | 10 | 10 | – | –
17 | Cn1c(=O)cc(N2CCN(C(c3ccc(F)cc3)c3ccc(F)cc3)CC2C2CC2)c2nc(C#N)ccc21 (single isomer, unassigned) [Example 24, 8-(4-(bis(4-fluorophenyl)methyl)-2-cyclopropylpiperazin-1-yl)-5-methyl-6-oxo-5,6-dihydro-1,5-naphthyridine-2-carbonitrile] | 1.5 | 3.9 | 0.2 | – | – | – | – | – | 13

Reference: patent US10669272B2, “Substituted naphthyridinone compounds useful as T cell activators” (BRISTOL-MYERS SQUIBB COMPANY, priority 2018, dated 2020)
